# Assay results from patent US20240424019A1, “SHP1 MODIFIED DENDRITIC CELLS AND EXTRACELLULAR VESICLES DERIVED THEREFROM AND ASSOCIATED METHODS” (BOARD OF REGENTS, THE UNIVERSITY OF TEXAS SYSTEM, priority 2021, published 2024).
# Legend:
# RAB34 = assay: Immunoblot of Rab34 proteins in BMDCs; format: cell-based, mouse; conditions: VitE vs vehicle, 48 hr
# SHP1 = molecular target: T1, SHP1 (Mus musculus, UniProt P29351); assay: SHP1 tyrosine phosphatase activity in LPS-activated BMDCs; format: cell-based; conditions: VitE 50 μg/ml vs vehicle, LPS 100 ng/ml stimulation
# T1 construct: We immunoprecipitated SHP1 from the vehicle or VitE-treated DC2.4 cells or BMDCs with a monoclonal SHP1 antibody; endogenous in cells
# T1 sequence (P29351 whole entry): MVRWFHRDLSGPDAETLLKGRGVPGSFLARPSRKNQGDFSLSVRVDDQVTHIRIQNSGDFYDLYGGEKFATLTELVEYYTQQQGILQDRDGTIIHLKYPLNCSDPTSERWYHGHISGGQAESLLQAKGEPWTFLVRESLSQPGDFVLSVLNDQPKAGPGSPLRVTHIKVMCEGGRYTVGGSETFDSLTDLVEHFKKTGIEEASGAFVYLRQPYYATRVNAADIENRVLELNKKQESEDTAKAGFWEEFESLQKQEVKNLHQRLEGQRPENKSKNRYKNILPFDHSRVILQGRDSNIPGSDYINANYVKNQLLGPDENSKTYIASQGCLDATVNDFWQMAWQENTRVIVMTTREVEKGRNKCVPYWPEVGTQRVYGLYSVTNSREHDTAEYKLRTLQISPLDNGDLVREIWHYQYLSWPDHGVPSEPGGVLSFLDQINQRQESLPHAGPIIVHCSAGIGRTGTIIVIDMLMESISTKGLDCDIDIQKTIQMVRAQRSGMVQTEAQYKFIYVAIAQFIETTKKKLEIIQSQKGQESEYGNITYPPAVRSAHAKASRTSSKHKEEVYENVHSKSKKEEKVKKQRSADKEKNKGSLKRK
# Description: FIG. 3A: […] FIG. 3B: t-SNEs by CyTOF and quantification comparing the intensity of […]-SHP1 in TADCs from the vehicle-or VitE-treated EMT6 tumors at day 15 post-implantation. FIG. 3C: Top, SHP1 knockdown in BMDCs was effective. Bottom, CFSE-dilution analysis of OT-1 T cells co-cultured with OVA protein-pulsed BMDCs (ratio 10:1) with knockdown of SHP1 by […]6 versus siCtrl (n=3). Right, quantification of OT-1 T-cell numbers under the indicated condition. FIG. 3D: The binding of VitE to purified SHP1 is analyzed by microscale thermophoresis (MST) binding assay. […] FIG. 3E: Relative tyrosine phosphatase activity of SHP1 immunoprecipitated from LPS (100 ng/ml)-activated DC2.4 cells in the presence of indicated doses of VitE (mean of triplicates). FIG. 3F: SHP1 tyrosine phosphatase activity in LPS (100 ng/ml)-activated BMDCs (n=6) treated with vehicle-or VitE (50 μg/ml). Error bars, s.e.m. ns, no significant. *P<0.05, **P<0.01. ***P<0.001, ****P<0.0001. Bone marrow (BM) was harvested from C57BL/6J, BALB/Cj mice by flushing femurs, tibias, and humeri with DCs culture medium. […] We assessed the phosphatase activity of SHP1 by using the RediPlate 96 EnzChek Tyrosine Phosphatase Assay Kit (ThermoFisher). […] We placed beads into RediPlate wells and incubated them for 30 min at 25° C. before reading them for fluorescence. […]
structure (smiles),measurement,setting,value
"Cc1c(C)c2c(c(C)c1O)CC[C@@](C)(CCC[C@H](C)CCC[C@H](C)CCCC(C)C)O2 [VitE, D-α-Tocopherol]",RAB34 expression in BMDCs,RAB34,increased total RAB34 expression
same,SHP1 activity in BMDCs,SHP1,marked reduction of SHP1 function
